The values below come from patent US11802111B2, “Cyclobutyl amide monoacylglycerol lipase modulators” (Janssen Pharmaceutica NV, priority 2020, dated 2023).

Molecules are shown by their SMILES. pIC50: −log10 of the molar value.

The target in this test is human MGL from HeLa cells (Homo sapiens (Human), UniProt Q99685). Kind of test: MGL in vitro activity assay ([glycerol-1,3-3H]-oleoyl glycerol hydrolysis, activated carbon filtration). It is filed as biochemical. Conditions: 300 nM [Glycerol-1,3-3H]-oleoyl glycerol, one hour. The procedure, abridged: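 Endogenous human MGL in HeLa cells/homogenates incubated 1 h with test compounds and 300 nM [glycerol-1,3-3H]-oleoyl glycerol. Released 3H-glycerol passing an activated carbon filter counted as activity; screening at 10 μM compound, top IC50 concentration set empirically.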
human MGL from HeLa cells, sequence (Q99685 whole entry): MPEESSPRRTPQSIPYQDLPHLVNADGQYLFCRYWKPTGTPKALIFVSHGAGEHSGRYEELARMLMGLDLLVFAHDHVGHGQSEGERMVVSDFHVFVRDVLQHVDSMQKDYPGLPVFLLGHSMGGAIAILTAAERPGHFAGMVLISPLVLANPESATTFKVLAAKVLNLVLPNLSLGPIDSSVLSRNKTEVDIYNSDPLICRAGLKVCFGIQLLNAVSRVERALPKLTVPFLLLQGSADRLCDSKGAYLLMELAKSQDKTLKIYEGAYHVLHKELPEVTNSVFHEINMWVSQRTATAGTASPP
A word on the pIC50: it is the negative decadic logarithm of the IC50, by convention in mol/L. For `CC(C)(C)c1cccc(OC2CCC3(C2)CN(C(=O)[C@H]2C[C@@](C)(O)C2)C3)c1` (mixture of isomers) [Example 243, (rac)-(6-(3-(tert-Butyl)phenoxy)-2-azaspiro[3.4]octan-2-yl)((1s,3s)-3-hydroxy-3-methylcyclobutyl)methanone], the pIC50 was 7.59.
On to `Cc1c(OC2CCC3(C2)CN(C(=O)[C@H]2C[C@@](C)(O)C2)C3)cccc1C(F)(F)F` (mixture of isomers) [Example 253, (rac)-((1s,3s)-3-Hydroxy-3-methylcyclobutyl)(6-(2-methyl-3-(trifluoromethyl)phenoxy)-2-azaspiro[3.4]octan-2-yl)methanone], for which the negative-log IC50 (pIC50) is 7.59.
The molecule `Cc1cc(OC2CCC3(C2)CN(C(=O)[C@H]2C[C@@](C)(O)C2)C3)ccc1C(F)(F)F` (mixture of isomers) [Example 254, (rac)-((1s,3s)-3-Hydroxy-3-methylcyclobutyl)(6-(3-methyl-4-(trifluoromethyl)phenoxy)-2-azaspiro[3.4]octan-2-yl)methanone] gave a negative-log IC50 (pIC50) of 7.68. This pIC50 and that of the molecule before are within 0.2 log units of each other.
Turning to `Cc1cc(C(F)(F)F)ccc1OC1CCC2(C1)CN(C(=O)[C@H]1C[C@@](C)(O)C1)C2` (mixture of isomers) [Example 255, (rac)-((1s,3s)-3-Hydroxy-3-methylcyclobutyl)(6-(2-methyl-4-(trifluoromethyl)phenoxy)-2-azaspiro[3.4]octan-2-yl)methanone], the pIC50 is 7.82. The pIC50 values of the last two molecules are within 0.2 log units of each other.
Under `Cc1ccc(OC2CCC3(C2)CN(C(=O)[C@H]2C[C@@](C)(O)C2)C3)cc1C(F)(F)F` (mixture of isomers) [Example 256, (rac)-((1s,3s)-3-Hydroxy-3-methylcyclobutyl)(6-(4-methyl-3-(trifluoromethyl)phenoxy)-2-azaspiro[3.4]octan-2-yl)methanone] stands 7.13.
With `CC(c1cccc2ccnn12)C1CC2(C1)CN(C(=O)[C@H]1C[C@@](C)(O)C1)C2` (mixture of isomers) [Example 316, (rac)-((1s,3s)-3-Hydroxy-3-methylcyclobutyl)(6-(1-(pyrazolo[1,5-a]pyridin-7-yl)ethyl)-2-azaspiro[3.3]heptan-2-yl)methanone] the figure was 7.31.
The molecule `CC(C)c1cccc(C2CCC3(C2)CN(C(=O)[C@H]2C[C@](O)(C(F)F)C2)C3)c1` (mixture of isomers) [Example 319, (rac)-((1s,3s)-3-(Difluoromethyl)-3-hydroxycyclobutyl)(6-(3-isopropylphenyl)-2-azaspiro[3.4]octan-2-yl)methanone] gave a pIC50 of 7.42.
Regarding `CC(F)(F)c1ccc(C2CCC3(C2)CN(C(=O)[C@H]2C[C@@](C)(O)C2)C3)cc1` (mixture of isomers) [Example 320, (rac)-(6-(4-(1,1-Difluoroethyl)phenyl)-2-azaspiro[3.4]octan-2-yl)((1s,3s)-3-hydroxy-3-methylcyclobutyl)methanone], the negative-log IC50 (pIC50) was 7.74.
Molecule `C[C@]1(O)C[C@@H](C(=O)N2CC3(CCC(c4ccc5c(c4)OCC5)C3)C2)C1` (mixture of isomers) [Example 323, (rac)-(6-(2,3-Dihydrobenzofuran-6-yl)-2-azaspiro[3.4]octan-2-yl)((1s,3s)-3-hydroxy-3-methylcyclobutyl)methanone] showed a negative-log IC50 (pIC50) of 6.78.
As for `C[C@]1(O)C[C@@H](C(=O)N2CC3(CCC(c4cccn5nccc45)C3)C2)C1` (mixture of isomers) [Example 324, (rac)-((1s,3s)-3-Hydroxy-3-methylcyclobutyl)(6-(pyrazolo[1,5-c]pyridin-4-yl)-2-azaspiro[3.4]octan-2-yl)methanone], the pIC50 was 6.08.
The molecule `C[C@]1(O)C[C@@H](C(=O)N2CC3(CCC(c4cc5ccccn5n4)C3)C2)C1` (mixture of isomers) [Example 325, (rac)-((1s,3s)-3-Hydroxy-3-methylcyclobutyl)(6-(pyrazolo[1,5-c]pyridin-2-yl)-2-azaspiro[3.4]octan-2-yl)methanone] showed a pIC50 of 6.46. This pIC50 lies 0.38 log units higher than the previous one.
For `Cn1ncc2c(C3CCC4(C3)CN(C(=O)[C@H]3C[C@@](C)(O)C3)C4)cccc21` (mixture of isomers) [Example 326, (rac)-((1s,3s)-3-Hydroxy-3-methylcyclobutyl)(6-(1-methyl-1H-indazol-4-yl)-2-azaspiro[3.4]octan-2-yl)methanone], the negative-log IC50 (pIC50) was 6.73.
In turn, `C[C@]1(O)C[C@@H](C(=O)N2CC3(CCC(c4cccn5ccnc45)C3)C2)C1` (mixture of isomers) [Example 327, (rac)-((1s,3s)-3-Hydroxy-3-methylcyclobutyl)(6-(imidazo[1,2-c]pyridin-8-yl)-2-azaspiro[3.4]octan-2-yl)methanone] showed a pIC50 of 5.51.
With `C[C@]1(O)C[C@@H](C(=O)N2CC3(CCC(c4ccn5ccnc5c4)C3)C2)C1` (mixture of isomers) [Example 328, (rac)-((1s,3s)-3-Hydroxy-3-methylcyclobutyl)(6-(imidazo[1,2-a]pyridin-7-yl)-2-azaspiro[3.4]octan-2-yl)methanone] the figure was 5.43.
With `C[C@]1(O)C[C@@H](C(=O)N2CC3(CCC(c4ncn5ccccc45)C3)C2)C1` (mixture of isomers) [Example 329, (rac)-((1s,3s)-3-Hydroxy-3-methylcyclobutyl)(6-(imidazo[1,5-a]pyridin-1-yl)-2-azaspiro[3.4]octan-2-yl)methanone], the negative-log IC50 (pIC50) is 6.17.
The molecule `C[C@]1(O)C[C@@H](C(=O)N2CC3(CCC(c4ncn5c4CCCC5)C3)C2)C1` (mixture of isomers) [Example 330, (rac)-((1s,3s)-3-Hydroxy-3-methylcyclobutyl)(6-(5,6,7,8-tetrahydroimidazo[1,5-a]pyridin-1-yl)-2-azaspiro[3.4]octan-2-yl)methanone] showed a negative-log IC50 (pIC50) of 5.62. This pIC50 lies 0.55 log units lower than the previous one.
On to `C[C@]1(O)C[C@@H](C(=O)N2CC3(CCC(c4cc5n(n4)CCCC5)C3)C2)C1` (mixture of isomers) [Example 331, (rac)-((1s,3s)-3-Hydroxy-3-methylcyclobutyl)(6-(4,5,6,7-tetrahydropyrazolo[1,5-a]pyridin-2-yl)-2-azaspiro[3.4]octan-2-yl)methanone], for which the negative logarithm of the IC50 (pIC50) was 5.99.
Under `Cc1ccc(OC2CCC3(C2)CN(C(=O)[C@H]2C[C@@](C)(O)C2)C3)cc1C1CC1` (mixture of isomers) [Example 332, (rac)-(6-(3-Cyclopropyl-4-methylphenoxy)-2-azaspiro[3.4]octan-2-yl)((1s,3s)-3-hydroxy-3-methylcyclobutyl)methanone] stands 6.87; under `Cc1c(OC2CCC3(C2)CN(C(=O)[C@H]2C[C@@](C)(O)C2)C3)cccc1C1CC1` (mixture of isomers) [Example 333, (rac)-(6-(3-Cyclopropyl-2-methylphenoxy)-2-azaspiro[3.4]octan-2-yl)((1s,3s)-3-hydroxy-3-methylcyclobutyl)methanone], 7.43; under `C[C@]1(O)C[C@@H](C(=O)N2CC3(CCC(Oc4cccc(C5CC5)c4F)C3)C2)C1` (mixture of isomers) [Example 334, (rac)-(6-(3-Cyclopropyl-2-fluorophenoxy)-2-azaspiro[3.4]octan-2-yl)((1s,3s)-3-hydroxy-3-methylcyclobutyl)methanone], 6.90.
With `C[C@]1(O)C[C@@H](C(=O)N2CC3(CCC(Oc4ccc(F)c(C5CC5)c4)C3)C2)C1` (mixture of isomers) [Example 335, (rac)-(6-(3-Cyclopropyl-4-fluorophenoxy)-2-azaspiro[3.4]octan-2-yl)((1s,3s)-3-hydroxy-3-methylcyclobutyl)methanone], the pIC50 is 6.94.
For `Cc1ccc(OC2CCC3(C2)CN(C(=O)[C@H]2C[C@@](C)(O)C2)C3)nc1C(F)(F)F` (mixture of isomers) [Example 336, (rac)-((1s,3s)-3-Hydroxy-3-methylcyclobutyl)(6-((5-methyl-6-(trifluoromethyl)pyridin-2-yl)oxy)-2-azaspiro[3.4]octan-2-yl)methanone], the negative-log IC50 (pIC50) is 7.04.
For the molecule `CC(C)c1cccc([C@@H]2CCC3(C2)CN(C(=O)[C@H]2C[C@@](C)(O)C2)C3C)c1` (relative stereo) [Example 318, ((1s,3*S)-3-Hydroxy-3-methylcyclobutyl)((6*R)-6-(3-isopropylphenyl)-1-methyl-2-azaspiro[3.4]octan-2-yl)methanone], the pIC50 is 7.32.
Under `C[C@@H](c1ccccc1)[C@H]1CCC2(C1)CN(C(=O)[C@H]1C[C@@](C)(O)C1)C2` (relative stereo) [Example 338, ((1s,3*R)-3-Hydroxy-3-methylcyclobutyl)((*S)-6-((*R)-1-phenylethyl)-2-azaspiro[3.4]octan-2-yl)methanone] stands 7.22.
The molecule `C[C@H](c1ccccc1)[C@H]1CCC2(C1)CN(C(=O)[C@H]1C[C@@](C)(O)C1)C2` (relative stereo) [Example 339, ((1s,3*R)-3-Hydroxy-3-methylcyclobutyl)((*S)-6-((*S)-1-phenylethyl)-2-azaspiro[3.4]octan-2-yl)methanone] showed a pIC50 of 7.32.
The molecule `C[C@@H](c1ccccc1)[C@@H]1CCC2(C1)CN(C(=O)[C@H]1C[C@@](C)(O)C1)C2` (single isomer, unassigned) [Example 337, ((1s,3*S)-3-Hydroxy-3-methylcyclobutyl)((*R)-6-((*R)-1-phenylethyl)-2-azaspiro[3.4]octan-2-yl)methanone] showed a negative logarithm of the IC50 (pIC50) of 6.83. Against the preceding molecule, the pIC50 is 0.49 log units lower.
Under `COc1cc([C@@H]2CCC3(C2)CN(C(=O)[C@H]2C[C@@](C)(O)C2)C3)ccc1C` (stereo in doubt) [Example 18, ((1s,3*S)-3-Hydroxy-3-methylcyclobutyl)((*R)-6-(3-methoxy-4-methylphenyl)-2-azaspiro[3.4]octan-2-yl)methanone] stands 7.19; under `COc1cc([C@H]2CCC3(C2)CN(C(=O)[C@H]2C[C@@](C)(O)C2)C3)ccc1C` (stereo in doubt) [Example 19, ((1s,3*R)-3-Hydroxy-3-methylcyclobutyl)((*S)-6-(3-methoxy-4-methylphenyl)-2-azaspiro[3.4]octan-2-yl)methanone], 7.17.
For `C[C@]1(O)C[C@@H](C(=O)N2CC3(CC[C@@H](c4cccc(C5CC5)c4F)C3)C2)C1` (stereo in doubt) [Example 25, ((*R)-6-(3-Cyclopropyl-2-fluorophenyl)-2-azaspiro[3.4]octan-2-yl)((1s,3*S)-3-hydroxy-3-methylcyclobutyl)methanone], the negative logarithm of the IC50 (pIC50) was 8.40.
